# Test results taken from patent US6624288B1 (priority 1997, dated 2003).
# Test system: Isolated medial neurons from Aplysia oculifera pleuropedal ganglia
# Type: cell-based
smiles,measurement,value
NC1=N[C@H](O)[C@H]2[C@H]3O[C@]4(O)O[C@@H]([C@@H](O)[C@@]2(N1)[C@@H]4O)[C@]3(O)CO [tetrodotoxin],effect on TxI-induced spike prolongation,reduced the TxI-induced spike prolongation
